{"source": "paper PMC6027146", "about": "“Synthesis and Structure-Activity Relationships of (−)-cis-N-Normetazocine-Based LP1 Derivatives” (Pharmaceuticals, 2018)", "key": {"[1]": {"system": "DOR", "set-up": "method as in PMID 20599386", "conditions": "less potent than DPDPE; cited from earlier work"}, "[2]": {"target": "human-KOR (Homo sapiens, UniProt P41145)", "sequence (P41145 whole entry)": "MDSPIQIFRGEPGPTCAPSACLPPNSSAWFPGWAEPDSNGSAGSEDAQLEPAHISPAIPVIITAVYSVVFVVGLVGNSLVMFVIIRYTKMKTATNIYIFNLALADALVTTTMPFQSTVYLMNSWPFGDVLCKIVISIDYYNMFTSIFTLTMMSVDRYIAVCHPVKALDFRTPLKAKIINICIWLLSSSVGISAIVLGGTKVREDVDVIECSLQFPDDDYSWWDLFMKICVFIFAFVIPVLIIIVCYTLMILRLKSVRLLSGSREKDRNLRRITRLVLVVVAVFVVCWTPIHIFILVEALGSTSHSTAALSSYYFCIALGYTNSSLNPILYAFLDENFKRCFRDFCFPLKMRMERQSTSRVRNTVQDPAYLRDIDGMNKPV", "experiment": "Calcium mobilization assay, CHO-KOR cells expressing Gαqi5", "format": "cell-based", "set-up": "expressed in transfected cells; gift of Dr. Larry Toll (SRI International); infected with a retrovirus for Gαqi5", "conditions": "agonist mode; Inactive = inactive at 10 μM; crc incomplete = incomplete concentration response curve at 10 μM; listed as LP1 (1)", "method": "(§1) The pharmacological characterization of LP1 derivatives 2 and 10–16 was performed by calcium mobilization assay (Table 2). This procedure was preliminarily validated through a series of experiments where the effects of DPDPE, dermorphin, and dynorphin A were assessed in CHO cells expressing the human recombinant opioid receptors and Gαqi5 or GαqG66Di5 chimeric proteins.\n(§2) Chinese hamster ovary (CHO) cells expressing the recombinant human MOR and KOR (CHO^MOR and CHO^KOR) were kindly provided by Dr. Larry Toll (SRI International, Menlo Park, CA, USA), and CHO cells expressing the recombinant human DOR (CHO^DOR) were supplied by Dr. Eva Varga (Department of Medical Pharmacology, The University of Arizona, Tucson, AZ, USA). CHO cells lines permanently coexpressing the opioid receptors and the C-terminally modified Gαqi5 were prepared by infecting the CHO lines described above with a recombinant retrovirus expressing the chimeric α subunit and the hygromycin resistance gene. Similarly, CHO cells lines permanently coexpressing DOR and the C-terminally modified GαqG66Di5 were prepared by infecting the CHO lines described above with a recombinant retrovirus expressing the chimeric α subunit and the hygromycin resistance gene. Polyclonal cell lines were generated using the pantropic retroviral expression system form BD-Clontech, as described previously. Stable lines were selected under hygromycin B (100 μg/mL) and geneticin (600 μg/mL) for 2–3 weeks after the infection.\n(§3) CHO cells, expressing human opioid receptors and the Gαqi5 protein, and CHODOR, expressing the GαqG66Di5 protein, were maintained in culture medium consisting of Dulbecco minimum essential medium (DMEM) and Ham F-12 (1:1) (50/50) supplemented with 10% fetal calf serum (FCS), L-glutamine (2 mM), geneticin (200 μg/mL; G418), hygromycin B (100 μg/mL) at 37 °C in 5% CO2 humidified air. When confluence was reached (3–4 days), cells were subcultured as required using trypsin/EDTA, and used for experimentation. The different cell lines were seeded at a density of […] into black 96-well, clear-bottomed plates. After 24 h incubation, the cells were loaded with medium supplemented with 2.5 mM probenecid, 3 μM of the calcium sensitive fluorescent dye Fluo-4 AM, and 0.01% pluronic acid, for 30 min at 37 °C. Afterwards, the loading solution was aspirated and 100 μL/well of assay buffer—HBSS supplemented with 20 mM HEPES, 2.5 mM probenecid and 500 μM Brilliant Black (Aldrich, St. Louis, MO, USA)—was added. Serial dilutions of ligands for experimental use were made in HBSS/HEPES (20 mM) buffer (containing 0.005% BSA fraction V). After placing both plates (cell culture and compound plate) into the FlexStation II (Molecular Device, Union City, San Jose, CA 94587, USA), fluorescence changes were measured at room temperature. Online additions were carried out in a volume of 50 μL/well. Antagonists were incubated 15 min before the addition of the agonist. Maximum change in fluorescence, expressed in percent of baseline fluorescence, was used to determine agonist response.\n(§4) Analysis of the binding data was performed using the Origin 7.5 software (OriginLab Corporation, Northampton, MA, USA). In calcium mobilization experiments, data were analyzed by non-linear curve fitting equation, using GraphPad 5.0 software. […] Ligand efficacy was expressed as intrinsic activity (α), calculated as the ratio between the Emax of the ligand and that of the respective standards. Calcium mobilization data were expressed as FIU (fluorescence intensity units) in percent, over the baseline. Agonist potencies are given as pEC50 (the negative logarithm to base 10 of the molar concentration of an agonist that produces 50% of the maximal possible effect, Emax). Concentration response curves to agonists were fitted with the following equation: Effect = baseline + (Emax − baseline)/(1+10^(LogEC50 − X) ∗ HillSlope) where X is the agonist concentration. […]"}, "[3]": {"target": "T1, recombinant human DOR (Homo sapiens, UniProt P41143)", "T1 construct": "expressed in transfected cells; supplied by Dr. Eva Varga (University of Arizona); infected with a retrovirus for GαqG66Di5", "T1 sequence (P41143 whole entry)": "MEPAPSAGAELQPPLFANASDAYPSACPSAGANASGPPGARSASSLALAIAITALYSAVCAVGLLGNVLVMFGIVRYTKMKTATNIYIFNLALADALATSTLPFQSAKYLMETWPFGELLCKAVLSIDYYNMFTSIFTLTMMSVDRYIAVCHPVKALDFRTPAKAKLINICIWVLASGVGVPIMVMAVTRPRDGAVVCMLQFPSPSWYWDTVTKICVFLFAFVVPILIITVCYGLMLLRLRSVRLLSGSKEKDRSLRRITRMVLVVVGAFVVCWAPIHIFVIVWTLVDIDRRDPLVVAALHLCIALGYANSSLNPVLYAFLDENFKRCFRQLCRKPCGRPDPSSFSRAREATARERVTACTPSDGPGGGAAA", "experiment": "Calcium mobilization assay, CHO-DOR cells expressing GαqG66Di5", "format": "cell-based", "method": "as §1, §2, §3, §4"}}, "data": [{"compound": "C[C@H]1[C@H]2Cc3ccc(O)cc3[C@]1(C)CCN2CCC(=O)Nc1ccccc1", "note": "[LP1, 3-[(2R,6R,11R)-8-hydroxy-6,11-dimethyl-1,4,5,6-tetrahydro-2,6-methano-3-benzazocin-3(2H)-yl]-N-phenylpropanamide, reference compound]", "values": [{"measurement": "potency in inhibiting cAMP accumulation relative to DPDPE (fold less potent)", "setting": "[1]", "value": "approximately 85 fold"}, {"measurement": "KOR pEC50 (CL95%)", "setting": "[2]", "value": "crc incomplete ^d"}, {"measurement": "EC50", "setting": "[3]", "value": 1.12, "unit": "µM"}, {"measurement": "functional profile at DOR", "setting": "[3]; calcium mobilization", "value": "partial DOR agonist"}]}]}
